Our source for the pest or weed control values is US10206394B2, “Herbicidal compounds” (Syngenta Participations AG, priority 2014, dated 2019).

Like-named read-outs stand apart in the source and are kept apart here.

Test in all cases: Glasshouse assay for herbicidal activity (pre- and post-emergence), percentage phytotoxicity
Holding throughout (format): in vivo

The test system of assay [1] is Alopecurus myosuroides (ALOMY). To be noted: Alopecurus myosuroides. The method in brief: (§1)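 Seeds were sown in standard soil in pots and grown one day (pre-emergence) or about 12 days (post-emergence) before herbicide application. Plants were kept at 24/18 °C (warm-climate) or 20/16 °C (cool-climate) day/night, 16 h light, 65% humidity, watered twice daily, and damage was scored visually at 15 DAA (POST) or 20 DAA (PRE).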

Assay [2] concerns Avena fatua (AVEFA). The following applies: Avena fatua. The essentials: as §1
Assay [3] relates to Echinochloa crus-galli (ECHCG). The following applies: Echinochloa crus-galli. The method in brief:
as §1

Assay [4] has as its system Lolium perenne (LOLPE). To be noted: Lolium perenne. The essentials: as §1
Setting [5] is: post-emergence, 360 h, POST-emergence, rate 250 g/ha, visual score 15 DAA (100%=total damage, 0%=no damage), read-out: Post-emergence herbicidal activity (percentage phytotoxicity) ALOMY POST.
[6] abbreviates: pre-emergence, 480 h, PRE-emergence, rate 250 g/ha, visual score 20 DAA (100%=total damage, 0%=no damage), read-out: Pre-emergence herbicidal activity (percentage phytotoxicity) ALOMY PRE.
The mark [7] stands for this setting: post-emergence, 360 h, POST-emergence, rate 250 g/ha, visual score 15 DAA (100%=total damage, 0%=no damage), read-out: Post-emergence herbicidal activity (percentage phytotoxicity) AVEFA POST.
The mark [8] stands for this setting: pre-emergence, 480 h, PRE-emergence, rate 250 g/ha, visual score 20 DAA (100%=total damage, 0%=no damage), read-out: Pre-emergence herbicidal activity (percentage phytotoxicity) AVEFA PRE.
Where [9] appears, read: post-emergence, 360 h, POST-emergence, rate 250 g/ha, visual score 15 DAA (100%=total damage, 0%=no damage), read-out: Post-emergence herbicidal activity (percentage phytotoxicity) ECHCG POST.
Where [10] appears, read: pre-emergence, 480 h, PRE-emergence, rate 250 g/ha, visual score 20 DAA (100%=total damage, 0%=no damage), read-out: Pre-emergence herbicidal activity (percentage phytotoxicity) ECHCG PRE.
Setting [11] is: post-emergence, 360 h, POST-emergence, rate 250 g/ha, visual score 15 DAA (100%=total damage, 0%=no damage), read-out: Post-emergence herbicidal activity (percentage phytotoxicity) LOLPE POST.
[12] abbreviates: pre-emergence, 480 h, PRE-emergence, rate 250 g/ha, visual score 20 DAA (100%=total damage, 0%=no damage), read-out: Pre-emergence herbicidal activity (percentage phytotoxicity) LOLPE PRE.
[13] abbreviates: post-emergence, 360 h, Rate 250 g/ha, post-emergence, assessed visually 15 DAA, 100%=total damage, 0%=no damage, read-out: Post-emergence herbicidal activity (percentage phytotoxicity) ALOMY POST.
Setting [14] is: post-emergence, 360 h, Rate 250 g/ha, post-emergence, assessed visually 15 DAA, 100%=total damage, 0%=no damage, read-out: Post-emergence herbicidal activity (percentage phytotoxicity) AVEFA POST.
The mark [15] stands for this setting: post-emergence, 360 h, Rate 250 g/ha, post-emergence, assessed visually 15 DAA, 100%=total damage, 0%=no damage, read-out: Post-emergence herbicidal activity (percentage phytotoxicity) ECHCG POST.
[16] abbreviates: post-emergence, 360 h, Rate 250 g/ha, post-emergence, assessed visually 15 DAA, 100%=total damage, 0%=no damage, read-out: Post-emergence herbicidal activity (percentage phytotoxicity) LOLPE POST.
Setting [17] is: pre-emergence, 480 h, Rate 250 g/ha, pre-emergence, assessed visually 20 DAA, 100%=total damage, 0%=no damage, read-out: Pre-emergence herbicidal activity (percentage phytotoxicity) ALOMY PRE.
[18] abbreviates: pre-emergence, 480 h, Rate 250 g/ha, pre-emergence, assessed visually 20 DAA, 100%=total damage, 0%=no damage, read-out: Pre-emergence herbicidal activity (percentage phytotoxicity) AVEFA PRE.
Setting [19] is: pre-emergence, 480 h, Rate 250 g/ha, pre-emergence, assessed visually 20 DAA, 100%=total damage, 0%=no damage, read-out: Pre-emergence herbicidal activity (percentage phytotoxicity) ECHCG PRE.
[20] abbreviates: pre-emergence, 480 h, Rate 250 g/ha, pre-emergence, assessed visually 20 DAA, 100%=total damage, 0%=no damage, read-out: Pre-emergence herbicidal activity (percentage phytotoxicity) LOLPE PRE.

For the molecule `CCc1cc(C)cc(C)c1C1C(=O)CC(CC(=O)N2CCOCC2)C1=O` (stereo not shown) [Compound B169], the pest or weed control at 250 g/ha in assay [1] (setting [5]), in assay [1] (setting [6]), in assay [2] (setting [7]), in assay [2] (setting [8]), in assay [3] (setting [9]) and in assay [3] (setting [10]) was 100% each time. Further, the pest or weed control at 250 g/ha in assay [4] (setting [11]) and in assay [4] (setting [12]) was 100% in each case.

Take `Cc1cc(-c2ncc(Cl)cc2F)cc(C)c1C1C(=O)CC(CC(=O)NCc2cncs2)C1=O` (stereo not shown) [Compound A129]: the pest or weed control at 250 g/ha in assay [1] (setting [13]) worked out at 50%; in assay [2] (setting [14]) it was 70%; in assay [3] (setting [15]) it was 90%; in assay [4] (setting [16]), 20%.

For `Cc1cc(-c2ncc(Br)cn2)cc(C)c1C1C(=O)CC(CC(=O)NC(C)(C)C)C1=O` (stereo not shown) [Compound B268], the pest or weed control at 250 g/ha was 90% in assay [1] (setting [5]); 100% in assay [1] (setting [6]); 100% in assay [2] (setting [7]); 90% in assay [2] (setting [8]); 100% in assay [3] (setting [9]); 100% in assay [3] (setting [10]). The pest or weed control at 250 g/ha in assay [4] (setting [11]) and in assay [4] (setting [12]) was 100% each time.

Take `CC#Cc1cc(C)c(C2C(=O)CC(CC(=O)NC(C)CC)C2=O)c(C)c1` (stereo not shown) [Compound A33]: the pest or weed control at 250 g/ha in assay [1] (setting [13]), in assay [1] (setting [17]), in assay [2] (setting [14]), in assay [2] (setting [18]), in assay [3] (setting [15]) and in assay [3] (setting [19]) was 100% each time. Besides, the pest or weed control at 250 g/ha in assay [4] (setting [16]) and in assay [4] (setting [20]) was 100% throughout.

As to `C=CCOCC(C)(C)NC(=O)CC1CC(=O)C(c2c(C)cc(C#CC)cc2C)C1=O` (stereo not shown) [Compound A64], the pest or weed control at 250 g/ha in assay [1] (setting [13]) worked out at 90%; in assay [1] (setting [17]), 70%; in assay [2] (setting [14]), 90%; in assay [2] (setting [18]), 70%; in assay [3] (setting [15]), 100%; in assay [3] (setting [19]) it was 100%. Besides, the pest or weed control at 250 g/ha in assay [4] (setting [16]) is 70%; in assay [4] (setting [20]), 80%.

For `Cc1cc(-c2ncc(Cl)cc2F)cc(C)c1C1C(=O)CC(CC(=O)NCc2ccccc2F)C1=O` (stereo not shown) [Compound A118], the pest or weed control at 250 g/ha in assay [1] (setting [13]) stood at 90%; in assay [1] (setting [17]), 80%; in assay [2] (setting [14]), 100%; in assay [2] (setting [18]), 100%; in assay [3] (setting [15]), 100%; in assay [3] (setting [19]) it was 100%. The pest or weed control at 250 g/ha in assay [4] (setting [16]) is 100%; in assay [4] (setting [20]), 90%.

For `Cc1cc(OCC(F)(F)F)cc(C)c1C1C(=O)CC(CC(=O)NC(C)C)C1=O` (stereo not shown) [Compound B208], the pest or weed control at 250 g/ha is 90% in assay [1] (setting [5]); 90% in assay [1] (setting [6]); 90% in assay [2] (setting [7]); 80% in assay [2] (setting [8]); 100% in assay [3] (setting [9]); 100% in assay [3] (setting [10]). In addition, the pest or weed control at 250 g/ha came to 90% in assay [4] (setting [11]) and 80% in assay [4] (setting [12]).

With `Cc1cc(-c2ccc(Cl)cn2)cc(C)c1C1C(=O)CC(CC(=O)NCc2cccc(F)c2)C1=O` (stereo not shown) [Compound B357], the pest or weed control at 250 g/ha came out at 90% in assay [1] (post-emergence, 360 h, Rate 250 g/ha, post-emergence, visual assessment 15 DAA, 100%=total damage, 0%=no damage, read-out: Post-emergence herbicidal activity (percentage phytotoxicity) ALOMY POST); 80% in assay [1] (pre-emergence, 480 h, Rate 250 g/ha, pre-emergence, visual assessment 20 DAA, 100%=total damage, 0%=no damage, read-out: Pre-emergence herbicidal activity (percentage phytotoxicity) ALOMY PRE); 100% in assay [2] (post-emergence, 360 h, Rate 250 g/ha, post-emergence, visual assessment 15 DAA, 100%=total damage, 0%=no damage, read-out: Post-emergence herbicidal activity (percentage phytotoxicity) AVEFA POST); 90% in assay [2] (pre-emergence, 480 h, Rate 250 g/ha, pre-emergence, visual assessment 20 DAA, 100%=total damage, 0%=no damage, read-out: Pre-emergence herbicidal activity (percentage phytotoxicity) AVEFA PRE); 100% in assay [3] (post-emergence, 360 h, Rate 250 g/ha, post-emergence, visual assessment 15 DAA, 100%=total damage, 0%=no damage, read-out: Post-emergence herbicidal activity (percentage phytotoxicity) ECHCG POST); 100% in assay [3] (pre-emergence, 480 h, Rate 250 g/ha, pre-emergence, visual assessment 20 DAA, 100%=total damage, 0%=no damage, read-out: Pre-emergence herbicidal activity (percentage phytotoxicity) ECHCG PRE). The pest or weed control at 250 g/ha in assay [4] (post-emergence, 360 h, Rate 250 g/ha, post-emergence, visual assessment 15 DAA, 100%=total damage, 0%=no damage, read-out: Post-emergence herbicidal activity (percentage phytotoxicity) LOLPE POST) stood at 90%; in assay [4] (pre-emergence, 480 h, Rate 250 g/ha, pre-emergence, visual assessment 20 DAA, 100%=total damage, 0%=no damage, read-out: Pre-emergence herbicidal activity (percentage phytotoxicity) LOLPE PRE) it was 100%.

Take `Cc1cc(-n2cc(Cl)cn2)cc(C)c1C1C(=O)CC(CC(=O)N(C)C(C)(C)C)C1=O` (stereo not shown) [Compound B229]: the pest or weed control at 250 g/ha in assay [1] (setting [5]) turned out to be 80%; in assay [1] (setting [6]) it was 90%; in assay [2] (setting [7]), 80%; in assay [2] (setting [8]), 90%; in assay [3] (setting [9]), 100%; in assay [3] (setting [10]), 100%. The pest or weed control at 250 g/ha in assay [4] (setting [11]) was 70%; in assay [4] (setting [12]), 90%.

Consider `Cc1cc(-c2ncc(Cl)cc2F)cc(C)c1C1C(=O)CC(CC(=O)NCc2cccc(F)c2)C1=O` (stereo not shown) [Compound B129], for which the pest or weed control at 250 g/ha was 100% in assay [1] (post-emergence, 360 h, 250 g/ha, post-emergence, 15 DAA, visual assessment (100%=total damage, 0%=no damage), read-out: Post-emergence herbicidal activity (percentage phytotoxicity) ALOMY POST); 90% in assay [1] (pre-emergence, 480 h, 250 g/ha, pre-emergence, 20 DAA, visual assessment (100%=total damage, 0%=no damage), read-out: Pre-emergence herbicidal activity (percentage phytotoxicity) ALOMY PRE); 100% in assay [2] (post-emergence, 360 h, 250 g/ha, post-emergence, 15 DAA, visual assessment (100%=total damage, 0%=no damage), read-out: Post-emergence herbicidal activity (percentage phytotoxicity) AVEFA POST); 50% in assay [2] (pre-emergence, 480 h, 250 g/ha, pre-emergence, 20 DAA, visual assessment (100%=total damage, 0%=no damage), read-out: Pre-emergence herbicidal activity (percentage phytotoxicity) AVEFA PRE); 100% in assay [3] (post-emergence, 360 h, 250 g/ha, post-emergence, 15 DAA, visual assessment (100%=total damage, 0%=no damage), read-out: Post-emergence herbicidal activity (percentage phytotoxicity) ECHCG POST); 70% in assay [3] (pre-emergence, 480 h, 250 g/ha, pre-emergence, 20 DAA, visual assessment (100%=total damage, 0%=no damage), read-out: Pre-emergence herbicidal activity (percentage phytotoxicity) ECHCG PRE). In addition, the pest or weed control at 250 g/ha is 100% in assay [4] (post-emergence, 360 h, 250 g/ha, post-emergence, 15 DAA, visual assessment (100%=total damage, 0%=no damage), read-out: Post-emergence herbicidal activity (percentage phytotoxicity) LOLPE POST) and 90% in assay [4] (pre-emergence, 480 h, 250 g/ha, pre-emergence, 20 DAA, visual assessment (100%=total damage, 0%=no damage), read-out: Pre-emergence herbicidal activity (percentage phytotoxicity) LOLPE PRE).
